Experimental data: BindingDB's records for doi:10.1021/jm00140a010 (1982)
Counter-ions that a name gives are not always drawn. Each block holds one molecule with its values, some of them ahead of it.

Biological target: Angiotensin-converting enzyme
Test: Concentration required to inhibit the activity of Angiotensin I converting enzyme by 50%

Structure (SMILES): O=C(CCC(=O)C(Cc1ccccc1)NC(=O)c1ccccc1)NC(Cc1ccccc1)C(=O)OCc1ccccc1 (stereo not given) [2-(5-Benzoylamino-4-oxo-6-phenyl-hexanoylamino)-3-phenyl-propionic acid benzyl ester]
IC50: 180 nM

Structure (SMILES): O=C(NC(Cc1ccccc1)=C(CCC(=O)N1CCC[C@H]1C(=O)O)NO)c1ccccc1 [1-(5-Benzoylamino-4-hydroxyimino-6-phenyl-hexanoyl)-pyrrolidine-2-carboxylic acid]
IC50: 1200 nM

Structure (SMILES): O=C(NC(Cc1ccccc1)C(=O)CCCC(=O)N1CCC[C@H]1C(=O)O)c1ccccc1 (stereo not given in full) [1-(6-Benzoylamino-5-oxo-7-phenyl-heptanoyl)-pyrrolidine-2-carboxylic acid]
IC50: 42 nM

Structure (SMILES): Cc1ccccc1C(=O)NC(Cc1ccccc1)C(=O)CCC(=O)N1CCC[C@H]1C(=O)OCc1ccccc1 (stereo not given in full) [1-[5-(2-Methyl-benzoylamino)-4-oxo-6-phenyl-hexanoyl]-pyrrolidine-2-carboxylic acid benzyl ester]
IC50: 1600 nM

Structure (SMILES): CC(NC(=O)c1ccccc1)C(=O)CCC(=O)N1CCC[C@H]1C(=O)O (stereo not given in full) [1-(5-Benzoylamino-4-oxo-hexanoyl)-pyrrolidine-2-carboxylic acid]
IC50: 300 nM

Structure (SMILES): CC(C)(C)OC(=O)[C@@H]1CCCN1C(=O)CCC(=O)C(Cc1ccc(OCc2ccccc2)cc1)NC(=O)c1ccccc1 (stereo not given in full) [1-[5-Benzoylamino-6-(4-benzyloxy-phenyl)-4-oxo-hexanoyl]-pyrrolidine-2-carboxylic acid tert-butyl ester]
IC50: 8600 nM

Structure (SMILES): NC(Cc1ccccc1)C(=O)CCC(=O)N1CCC[C@H]1C(=O)O (stereo not given in full) [1-(5-Amino-4-oxo-6-phenyl-hexanoyl)-pyrrolidine-2-carboxylic acid; hydrochloride]
IC50: 25000 nM

Structure (SMILES): O=C(NC(Cc1ccc(OCc2ccccc2)cc1)C(=O)CCC(=O)N1CCC[C@H]1C(=O)OCc1ccccc1)c1ccccc1 (stereo not given in full) [1-[5-Benzoylamino-6-(4-benzyloxy-phenyl)-4-oxo-hexanoyl]-pyrrolidine-2-carboxylic acid benzyl ester]
IC50: 86 nM

Structure (SMILES): O=C(NC(Cc1ccccc1)C(=O)CCC(=O)N1CCC[C@H]1C(=O)O)OCc1ccccc1 (stereo not given in full) [1-(5-Benzyloxycarbonylamino-4-oxo-6-phenyl-hexanoyl)-pyrrolidine-2-carboxylic acid]
IC50: 240 nM

Structure (SMILES): Cc1ccccc1C(=O)NC(Cc1ccccc1)C(=O)CCC(=O)N1CCC[C@H]1C(=O)O (stereo not given in full) [1-[5-(2-Methyl-benzoylamino)-4-oxo-6-phenyl-hexanoyl]-pyrrolidine-2-carboxylic acid]
IC50: 46 nM

Structure (SMILES): NC(=O)[C@@H]1CCCN1C(=O)CCC(=O)C(Cc1ccccc1)NC(=O)c1ccccc1 (stereo not given in full) [1-(5-Benzoylamino-4-oxo-6-phenyl-hexanoyl)-pyrrolidine-2-carboxylic acid amide]
IC50: 150 nM

Structure (SMILES): CC(=O)NC(Cc1ccccc1)C(=O)CCC(=O)N1CCC[C@H]1C(=O)O (stereo not given in full) [1-(5-Acetylamino-4-oxo-6-phenyl-hexanoyl)-pyrrolidine-2-carboxylic acid]
IC50: 330 nM

The next molecules have a lower IC50 than those just listed; values first:

IC50: 28 nM
Structure (SMILES): O=C(CCC(=O)C(Cc1ccccc1)NC(=O)c1ccccc1)N[C@H](Cc1ccccc1)C(=O)O (stereo not given in full) [2-(5-Benzoylamino-4-oxo-6-phenyl-hexanoylamino)-3-phenyl-propionic acid]

IC50: 20 nM
Structure (SMILES): O=C(CCC(=O)N1CCC[C@H]1C(=O)O)C(Cc1ccccc1)NC(=O)C1CCCO1 (stereo not given in full) [1-{4-Oxo-6-phenyl-5-[(tetrahydro-furan-2-carbonyl)-amino]-hexanoyl}-pyrrolidine-2-carboxylic acid]

IC50: 15 nM
Structure (SMILES): O=C(NC(Cc1cccnc1)C(=O)CCC(=O)N1CCC[C@H]1C(=O)OCc1ccccc1)c1ccccc1 (stereo not given in full) [1-(5-Benzoylamino-4-oxo-6-pyridin-3-yl-hexanoyl)-pyrrolidine-2-carboxylic acid benzyl ester]

IC50: 10 nM
Structure (SMILES): O=C(NC(Cc1ccc(OCc2ccccc2)cc1)C(=O)CCC(=O)N1CCC[C@H]1C(=O)O)c1ccccc1 (stereo not given in full) [1-[5-Benzoylamino-6-(4-benzyloxy-phenyl)-4-oxo-hexanoyl]-pyrrolidine-2-carboxylic acid]

IC50: 5.7 nM
Structure (SMILES): O=C(NC(Cc1cccnc1)C(=O)CCC(=O)N1CCC[C@H]1C(=O)O)c1ccccc1 (stereo not given in full) [1-(5-Benzoylamino-4-oxo-6-pyridin-3-yl-hexanoyl)-pyrrolidine-2-carboxylic acid]

IC50: 4.7 nM
Structure (SMILES): O=C(NC(Cc1ccc(O)cc1)C(=O)CCC(=O)N1CCC[C@H]1C(=O)O)c1ccccc1 (stereo not given in full) [1-[5-Benzoylamino-6-(4-hydroxy-phenyl)-4-oxo-hexanoyl]-pyrrolidine-2-carboxylic acid]

IC50: 1.4 nM
Structure (SMILES): COc1ccc(CC(NC(=O)c2ccccc2)C(=O)CCC(=O)N2CCC[C@H]2C(=O)O)cc1OC (stereo not given in full) [1-[5-Benzoylamino-6-(3,4-dimethoxy-phenyl)-4-oxo-hexanoyl]-pyrrolidine-2-carboxylic acid]

IC50: 1.4 nM
Structure (SMILES): O=C(NC(Cc1ccccc1)C(=O)CCC(=O)N1CCC[C@H]1C(=O)O)c1ccco1 (stereo not given in full) [1-{5-[(Furan-2-carbonyl)-amino]-4-oxo-6-phenyl-hexanoyl}-pyrrolidine-2-carboxylic acid]
